Measured values reported in patent publication US20260184700A1, “PDK1 REGULATORY COMPOUND AND COMPOSITION CONTAINING THE SAME” (PROVIBIO CO., LTD., priority 2024, published 2026).

What was measured:
[1] = tested on: T cells isolated from mouse spleen; assay: T cell proliferation inhibition, CFSE flow cytometry, CD3/CD28 activation; assay type: cell-based; conditions: CD3/CD28 activated, 3 days
How it was run: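 Splenic T cells from 7-week-old C57BL/6 mice were MACS-isolated, CFSE-labelled, seeded at 2×10^5 cells/well and activated with anti-CD3/anti-CD28 (0.5 μg/mL each). Compound at 10 nM–50 μM (six levels, triplicate) was present for 3 days at 37 °C before flow cytometric readout of proliferation inhibition rate.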

[2] = tested on: Human Osteosarcoma, Saos-2; assay: Relative cell viability, CCK-8, Saos-2; assay type: cell-based
Experimental: Human-derived head and neck cancer cell line Fadu and osteosarcoma cell line Saos-2 were cultured in MEM medium containing 10% FBS, 100 U/mL penicillin, and 100 μg/mL streptomycin.
Following stabilization, the cells were harvested using Trypsin-EDTA treatment, centrifuged at 1,200 rpm for 3 minutes, the supernatant was removed, and the cells were resuspended in the same medium. They were then seeded into a 96-well plate (Costar 96-well cell culture plate, Corning) at 100 μL per well, and the conditions were adjusted as indicated in Table 5.
The cells were cultured in a 5% CO2 incubator at 37° C. for 24 hours, and after stabilization of the cells, each plate was washed with 200 μL of PBS per well and treated with 50 μL of culture medium per well. […]
After that, 10 μL of CCK-8 was added to each well, and the plate was incubated again at 37° C. in a 5% CO2 incubator for 2 hours.
In other words, when the survival rate of untreated cells (DMSO) is set at 100%, the relative cell survival rate in each group treated with the drug at different concentrations is indicated.

[3] = tested on: bleomycin-treated Balb/c mice; assay: Bleomycin-induced pulmonary fibrosis animal model; assay type: in vivo, mouse; conditions: bleomycin mice lung, vs BLM-treated group
Text: To evaluate the therapeutic efficacy of the compound according to the present invention against pulmonary fibrosis, an animal model of pulmonary fibrosis induced by bleomycin intratracheal administration was established.
For this purpose, 8-week-old male Balb/c mice were subjected to general anesthesia using an inhalation anesthetic (2-3% isoflurane in oxygen), followed by disinfection of the neck region, skin incision, and exposure of the trachea.
Bleomycin (Sigma-Aldrich, USA) was directly administered into the trachea at a concentration of 5 mg/kg in a solution of 100 μL.
Two days prior to Bleomycin administration, the compound of the present invention or the comparative drug was administered intraperitoneally at the specified concentration and dose, and the administration was continued once daily for a total of 14 days.
The experimental groups included Normal, Bleomycin alone (BLM), and BLM plus the compound of the present invention (BLM+GO88, 0.2 mg/kg).
Ten days later, the mice were euthanized humanely using carbon dioxide gas, the trachea was incised, and PBS was injected into the trachea to remove blood from the lungs.
The lung tissue washed with PBS was excised, fixed in 4% paraformaldehyde solution for 24 hours, and then paraffin blocks and tissue sections were prepared. The prepared sections were subjected to pathological analysis using H & E, Masson's trichrome, and Sirius red staining.
Additionally, immunohistochemical (IHC) staining was performed for α-SMA (α-smooth muscle actin), an indicator of lung fibroblast activation.

[4] = tested on: skin-grafted C57BL/6 mice; assay: Skin graft animal model (BALB/c donor, C57BL/6 recipient); assay type: in vivo, mouse; conditions: GO88 0.15 mg/kg twice daily
Experimental: To evaluate the immune-suppressive effects of the compounds according to the present invention, a skin graft animal model was established, and the efficacy of the compounds was analyzed in the model.
First, female BALB/c mice aged 7 weeks and weighing approximately 20 g were used as donor animals, and female C57BL/6 mice of the same age and weight were used as recipient animals. All experimental animals were supplied by HanabioTech Co., Ltd.
Prior to the experiment, the animals were acclimatized in SPF-certified facilities for one week and then used in the experiment. The housing conditions were maintained at a temperature of 22±2° C., relative humidity of 55±10%, and a 12-hour light-dark cycle.
To establish the skin graft model, a anesthetic solution consisting of ketamine, […], and PBS in a volume ratio of 1:1:3 was administered intraperitoneally to C57BL/6 mice to induce anesthesia.
The hair on the dorsal side of the anesthetized mice was removed and disinfected, followed by excision of the full-thickness skin using an 8 mm punch. Subsequently, skin of the same size was harvested from donor mice (BALB/c) and transplanted. […]
Subsequently, the proportions of CD3- and B220-positive cells were analyzed using a flow cytometer.

Row | SMILES | Proliferation inhibition rate (%) ([1]; compound 100 nM) | Proliferation inhibition rate (%) ([1]; compound 1 μM) | Proliferation inhibition rate (%) ([1]; compound 10 μM) | Proliferation inhibition rate (%) ([1]; compound 30 μM) | Proliferation inhibition rate (%) ([1]; compound 50 μM) | Relative cell viability (%) ([2]; Saos-2, 10 μM, 48 hours) | Relative cell viability (%) ([2]; Saos-2, 30 μM, 48 hours) | Relative cell viability (%) ([2]; Saos-2, 50 μM, 48 hours) | Relative cell viability (%) ([2]; Saos-2, 48 hours) | collagen deposition (Masson's trichrome and Sirius red staining) [3] | expression of α-SMA (IHC) [3] | animals with graft pinkening and good blood flow ([4]; day 10 post-transplantation) | animals with graft pinkening and good blood flow ([4]; day 15 post-transplantation)
1 | CC1(C)CN(CCCCCCCCCCCCC(=O)Nc2nc(N)c3[nH]cnc3n2)CCO1 [Compound 11, 12-[4-(2,2-dimethylmorpholin-4-yl)]dodecyl-N-(6-aminopurine-2-yl)carboxamide] | 100.00% | 100.00% | 100.00% | 100.00% | 100.00% | 24.98% | 16.00% | 36.73% | 36.73% |  |  |  | 
2 | Nc1ncccc1C(=O)NCCCCCCCCCCCCN1CCNCC1 [Compound 14, 2-Amino-N-(12-(piperazin-1-yl)dodecyl)nicotinamide] |  |  |  |  |  |  |  |  |  | significantly reduced | significantly suppressed | three out of five animals | one out of five animals
